According to patent US10093630B2, “Pyrazole compounds and methods of making and using same” (ABIDE THERAPEUTICS, INC., priority 2014, dated 2018):

Key:
Test in all cases: In vitro competitive activity-based protein profiling (gel-based, FP-Rh or HT-01 probe)
Assay type in all cases: biochemical
FAAH = biological target: T1, FAAH (Mus musculus, UniProt O08914); conditions: for inhibition at 1 µM: 1 μM inhibitor, read-out: % Inhibition at 1 μM, B = FAAH; for inhibition at 10 µM: 10 μM inhibitor, read-out: % Inhibition at 10 μM, B = FAAH; for IC50: mouse brain membrane fraction or cell lysates, 30 min preincubation at 37° C., read-out: Mouse (IC50 value, nM) FAAH
T1 construct: Proteomes (mouse brain membrane fraction or cell lysates); from tissue; host or cells: mouse brain membrane fraction (or cell lysates, not specified)
T1 sequence (O08914 1-579): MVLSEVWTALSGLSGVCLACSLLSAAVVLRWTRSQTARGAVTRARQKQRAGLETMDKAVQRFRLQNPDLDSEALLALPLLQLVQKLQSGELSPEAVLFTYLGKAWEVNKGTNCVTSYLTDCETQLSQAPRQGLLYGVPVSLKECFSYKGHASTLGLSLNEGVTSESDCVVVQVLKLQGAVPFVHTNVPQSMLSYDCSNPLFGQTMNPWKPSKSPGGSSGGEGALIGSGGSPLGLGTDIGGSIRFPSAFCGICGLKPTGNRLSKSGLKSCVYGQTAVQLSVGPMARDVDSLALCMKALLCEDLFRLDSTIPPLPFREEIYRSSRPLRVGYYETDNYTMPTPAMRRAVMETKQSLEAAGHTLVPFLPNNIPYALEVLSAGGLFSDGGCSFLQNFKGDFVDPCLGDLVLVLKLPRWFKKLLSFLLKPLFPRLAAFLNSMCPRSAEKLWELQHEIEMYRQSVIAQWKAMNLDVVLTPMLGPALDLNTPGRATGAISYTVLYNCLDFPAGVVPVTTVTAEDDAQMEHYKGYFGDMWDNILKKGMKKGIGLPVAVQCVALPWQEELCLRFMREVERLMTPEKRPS
Procedure, shortened: (§1)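 Mouse brain membrane or cell lysate proteomes (1.0 mg/mL) preincubated with inhibitors 30 min at 37° C, then labelled with FP-Rh or HT-01 for 30 min at 37° C. After SDS-PAGE, activity quantified from fluorescent band intensity.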

MAGL = biological target: T2, MAGL (Mus musculus, UniProt O35678); conditions: for inhibition at 1 µM: 1 μM inhibitor; for inhibition at 10 µM: 10 μM inhibitor; for IC50: mouse brain membrane fraction or cell lysates, 30 min preincubation at 37° C., read-out: Mouse (IC50 value, nM) MAGL
T2 construct: Proteomes (mouse brain membrane fraction or cell lysates); from tissue; host or cells: mouse brain membrane fraction (or cell lysates, not specified)
T2 sequence (O35678 1-303): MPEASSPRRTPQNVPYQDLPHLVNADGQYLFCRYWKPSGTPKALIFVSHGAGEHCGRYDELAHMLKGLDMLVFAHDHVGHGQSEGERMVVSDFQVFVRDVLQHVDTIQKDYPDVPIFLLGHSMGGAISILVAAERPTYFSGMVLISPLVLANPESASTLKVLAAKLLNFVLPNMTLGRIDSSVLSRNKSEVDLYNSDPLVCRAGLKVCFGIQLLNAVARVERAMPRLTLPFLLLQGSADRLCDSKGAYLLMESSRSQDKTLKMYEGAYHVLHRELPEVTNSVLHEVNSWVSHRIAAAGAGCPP
Procedure, shortened: as §1

ABHD6 = biological target: T3, ABHD6 (Mus musculus, UniProt Q8R2Y0); conditions: for inhibition at 1 µM: 1 μM inhibitor, read-out: % Inhibition at 1 μM, C = ABHD6; for inhibition at 10 µM: 10 μM inhibitor, read-out: % Inhibition at 10 μM, C = ABHD6; for IC50: mouse brain membrane fraction or cell lysates, 30 min preincubation at 37° C., read-out: Mouse (IC50 value, nM) ABHD6
T3 construct: Proteomes (mouse brain membrane fraction or cell lysates); from tissue; host or cells: mouse brain membrane fraction (or cell lysates, not specified)
T3 sequence (Q8R2Y0 1-336): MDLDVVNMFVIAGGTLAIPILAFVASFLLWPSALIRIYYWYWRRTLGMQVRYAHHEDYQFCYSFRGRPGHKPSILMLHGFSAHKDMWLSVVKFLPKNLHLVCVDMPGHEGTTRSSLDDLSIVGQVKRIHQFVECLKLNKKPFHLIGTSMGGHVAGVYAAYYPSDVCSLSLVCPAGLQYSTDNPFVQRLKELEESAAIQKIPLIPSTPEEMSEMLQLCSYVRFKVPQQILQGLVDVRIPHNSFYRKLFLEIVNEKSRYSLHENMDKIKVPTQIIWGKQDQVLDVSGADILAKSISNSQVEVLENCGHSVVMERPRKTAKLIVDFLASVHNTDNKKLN
Procedure, shortened: as §1

PLA2G7 = biological target: T4, PLA2G7 (Mus musculus, UniProt Q60963); conditions: for inhibition at 1 µM: 1 μM inhibitor, read-out: % Inhibition at 1 μM, D = PLA2G7; for inhibition at 10 µM: 10 μM inhibitor, read-out: % Inhibition at 10 μM, D = PLA2G7; for IC50: mouse brain membrane fraction or cell lysates, 30 min preincubation at 37° C.
T4 construct: Proteomes (mouse brain membrane fraction or cell lysates); from tissue; host or cells: mouse brain membrane fraction (or cell lysates, not specified)
T4 sequence (Q60963 22-440): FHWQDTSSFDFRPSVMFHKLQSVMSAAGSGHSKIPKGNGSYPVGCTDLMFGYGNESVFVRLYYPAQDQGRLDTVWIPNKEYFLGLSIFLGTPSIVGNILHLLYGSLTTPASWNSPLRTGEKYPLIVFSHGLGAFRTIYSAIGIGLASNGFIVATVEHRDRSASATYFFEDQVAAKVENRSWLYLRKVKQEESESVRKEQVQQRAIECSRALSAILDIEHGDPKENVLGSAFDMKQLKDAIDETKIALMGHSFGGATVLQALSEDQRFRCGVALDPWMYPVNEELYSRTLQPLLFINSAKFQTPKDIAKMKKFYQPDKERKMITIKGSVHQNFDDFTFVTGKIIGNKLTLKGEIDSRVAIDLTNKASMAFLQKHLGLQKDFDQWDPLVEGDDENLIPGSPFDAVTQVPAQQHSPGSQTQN
Procedure, shortened: as §1

Row | Structure (SMILES) | inhibition at 1 µM (FAAH) | inhibition at 10 µM (FAAH) | inhibition at 1 µM (MAGL) | inhibition at 10 µM (MAGL) | inhibition at 1 µM (ABHD6) | inhibition at 10 µM (ABHD6) | inhibition at 1 µM (PLA2G7) | inhibition at 10 µM (PLA2G7) | IC50 (FAAH) | IC50 (MAGL) | IC50 (ABHD6) | IC50 (PLA2G7)
1 | O=C(N1CCN(c2ccccc2)CC1)n1cc(C(F)(F)F)cn1 [Example 202, (4-Phenylpiperazin-1-yl)(4-(trifluoromethyl)-1H-pyrazol-1-yl)methanone] | > 75% | > 75% | > 75% | > 75% | > 75% | > 75% | > 75% | > 75% |  |  |  | 
2 | N#Cc1cnn(C(=O)N2CCCC2)c1 [Example 203, 1-(Pyrrolidine-1-carbonyl)-1H-pyrazole-4-carbonitrile] | > 75% | > 75% | < 25% | > 75% | < 25% | > 75% | < 25% | > 75% |  |  |  | 
3 | N#Cc1cnn(C(=O)N2CCOCC2)c1 [Example 205, 1-(Morpholine-4-carbonyl)-1H-pyrazole-4-carbonitrile] | > 75% | > 75% | < 25% | 25 to 75% | 25 to 75% | > 75% | > 75% | > 75% |  |  |  | 
4 | N#Cc1cnn(C(=O)N2CCN(c3ccccc3)CC2)c1 [Example 206, 1-(4-Phenylpiperazine-1-carbonyl)-1H-pyrazole-4-carbonitrile] | > 75% | > 75% | > 75% | > 75% | > 75% | > 75% | > 75% | > 75% |  |  |  | 
5 | Cc1cc(N2CCN(C(=O)n3cc(-c4ccccc4)cn3)CC2)c2ccccc2n1 [Example 207, (4-(2-Methylquinolin-4-yl)piperazin-1-yl)(4-phenyl-1H-pyrazol-1-yl)methanone] | > 75% | > 75% | 25 to 75% | > 75% | > 75% | > 75% | 25 to 75% | > 75% |  |  |  | 
6 | Cc1cc(N2CCN(C(=O)n3cc(Cl)cn3)CC2)c2ccccc2n1 [Example 208, (4-Chloro-1H-pyrazol-1-yl)(4-(2-methylquinolin-4-yl)piperazin-1-yl)methanone] | > 75% | > 75% | > 75% | > 75% | > 75% | > 75% | > 75% | > 75% |  |  |  | 
7 | Cc1cc(N2CCN(C(=O)n3cc(C(F)(F)F)cn3)CC2)c2ccccc2n1 [Example 210, (4-(2-Methylquinolin-4-yl)piperazin-1-yl)(4-(trifluoromethyl)-1H-pyrazol-1-yl)methanone] | > 75% | > 75% | > 75% | > 75% | > 75% | > 75% | 25 to 75% | > 75% | > 1000 nM | < 100 nM | 100 to 1000 nM | < 100 nM
8 | O=C(N1CCN(CC2CC2)CC1)n1cc(Cl)cn1 [Example 215, (4-Chloro-1H-pyrazol-1-yl)(4-(cyclopropylmethyl)piperazin-1-yl)methanone] | > 75% | > 75% | 25 to 75% | > 75% | > 75% | > 75% | < 25% | > 75% |  |  |  | 

The next lines start with the values.

Row | inhibition at 1 µM (FAAH) | inhibition at 10 µM (FAAH) | inhibition at 1 µM (MAGL) | inhibition at 10 µM (MAGL) | inhibition at 1 µM (ABHD6) | inhibition at 10 µM (ABHD6) | inhibition at 1 µM (PLA2G7) | inhibition at 10 µM (PLA2G7) | IC50 (FAAH) | IC50 (MAGL) | IC50 (ABHD6) | IC50 (PLA2G7) | Structure (SMILES)
9 | > 75% |  | > 75% |  | > 75% |  | < 25% |  | 100 to 1000 nM | < 100 nM | < 100 nM | > 1000 nM | NC(=O)c1cnn(C(=O)N2CCN(Cc3ccc(Cl)cc3)CC2)c1 [Example 204, 1-(4-(4-chlorobenzyl)piperazine-1-carbonyl)-1H-pyrazole-4-carboxamide]
10 | > 75% | > 75% | > 75% | > 75% | > 75% | > 75% | > 75% | > 75% |  |  |  |  | Cc1cc(N2CCN(C(=O)n3cc(C#N)cn3)CC2)c2ccccc2n1 [Example 209, 1-(4-(2-Methylquinolin-4-yl)piperazine-1-carbonyl)-1H-pyrazole-4-carbonitrile]
11 | > 75% | > 75% | > 75% | > 75% | > 75% | > 75% | < 25% | > 75% | < 100 nM | < 100 nM | < 100 nM |  | O=C(N1CCN(Cc2ccc(Cl)c(Cl)c2)CC1)n1cc(Cl)cn1 [Example 211, (4-Chloro-1H-pyrazol-1-yl)(4-(3,4-dichlorobenzyl)piperazin-1-yl)methanone]
12 | > 75% | > 75% | > 75% | > 75% | > 75% | > 75% | < 25% | > 75% | 100 to 1000 nM | < 100 nM | 100 to 1000 nM |  | O=C(N1CCN(Cc2ccc(N3CCCC3)cc2)CC1)n1cc(Cl)cn1 [Example 212, (4-Chloro-1H-pyrazol-1-yl)(4-(4-(pyrrolidin-1-yl)benzyl)piperazin-1-yl)methanone]
13 | > 75% | > 75% | > 75% | > 75% | > 75% | > 75% | < 25% | > 75% | < 100 nM | < 100 nM | < 100 nM | 100 to 1000 nM | O=C(N1CCN(Cc2ccc(C(F)(F)F)cc2)CC1)n1cc(Cl)cn1 [Example 213, (4-Chloro-1H-pyrazol-1-yl)(4-(4-(trifluoromethyl)benzyl)piperazin-1-yl)methanone]
14 | > 75% |  | > 75% |  | > 75% |  | > 75% |  |  |  |  |  | O=C(N1CCN(Cc2ccc(CN3CCOCC3)cc2)CC1)n1cc(Cl)cn1 [Example 214, (4-Chloro-1H-pyrazol-1-yl)(4-(4-(morpholinomethyl)benzyl)piperazin-1-yl)methanone]
